{
  "source": "the supplement of paper PMC10307832",
  "test_in_all_cases": "relative viability (nuclei count vs DMSO), 5 days (fraction); higher = more cells survive",
  "key": {"BAY61-3606 + Olaparib": {"compound": "COC1=C(C=C(C=C1)C2=CC3=NC=CN3C(=N2)NC4=C(C=CC=N4)C(=O)N)OC [BAY61-3606] + O=C(c1cc(Cc2n[nH]c(=O)c3ccccc23)ccc1F)N1CCN(C(=O)C2CC2)CC1 [Olaparib] (partner 8 µM)", "in_short": "(§1)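 Relative viability is defined as nuclei in treated wells over nuclei in vehicle wells. Duplicate plates were run and medians reported. Lung cancer cell lines in 1536-well plates were dosed by pin tool one day after seeding, with one drug or with a fixed anchor-drug dose plus five library-drug doses (not always all listed) in √10 steps, and nuclei were counted after 5 days.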"}, "BAY61-3606 + Alpelisib": {"compound": "COC1=C(C=C(C=C1)C2=CC3=NC=CN3C(=N2)NC4=C(C=CC=N4)C(=O)N)OC [BAY61-3606] + Cc1nc(NC(=O)N2CCC[C@H]2C(N)=O)sc1-c1ccnc(C(C)(C)C(F)(F)F)c1 [Alpelisib] (partner 2 µM)", "in_short": "as §1"}, "BAY61-3606 + Pemetrexed": {"compound": "COC1=C(C=C(C=C1)C2=CC3=NC=CN3C(=N2)NC4=C(C=CC=N4)C(=O)N)OC [BAY61-3606] + Nc1nc2[nH]cc(CCc3ccc(C(=O)N[C@@H](CCC(=O)O)C(=O)O)cc3)c2c(=O)[nH]1 [Pemetrexed] (partner 0.2 µM)", "in_short": "as §1"}, "Doxorubicin + Dasatinib": {"compound": "COc1cccc2c1C(=O)c1c(O)c3c(c(O)c1C2=O)C[C@@](O)(C(=O)CO)C[C@@H]3O[C@H]1C[C@H](N)[C@H](O)[C@H](C)O1 [Doxorubicin] + Cc1nc(Nc2ncc(C(=O)Nc3c(C)cccc3Cl)s2)cc(N2CCN(CCO)CC2)n1 [Dasatinib] (partner 0.075 µM)", "in_short": "as §1"}},
  "data": [
    {"cell line": "UMC-11", "values": [
      {"measurement": "relative viability", "setting": "BAY61-3606 + Olaparib; first compound 0.02 µM", "value": 0.351},
      {"measurement": "relative viability", "setting": "BAY61-3606 + Olaparib; first compound 0.06325 µM", "value": 0.385},
      {"measurement": "relative viability", "setting": "BAY61-3606 + Olaparib; first compound 0.2 µM", "value": 0.268},
      {"measurement": "relative viability", "setting": "BAY61-3606 + Olaparib; first compound 0.6325 µM", "value": 0.643},
      {"measurement": "relative viability", "setting": "BAY61-3606 + Olaparib; first compound 2 µM", "value": 0.266},
      {"measurement": "relative viability", "setting": "BAY61-3606 + Alpelisib; first compound 0.02 µM", "value": 1.01},
      {"measurement": "relative viability", "setting": "BAY61-3606 + Alpelisib; first compound 0.06325 µM", "value": 1.09},
      {"measurement": "relative viability", "setting": "BAY61-3606 + Alpelisib; first compound 0.2 µM", "value": 1.08},
      {"measurement": "relative viability", "setting": "BAY61-3606 + Alpelisib; first compound 0.6325 µM", "value": 0.973},
      {"measurement": "relative viability", "setting": "BAY61-3606 + Alpelisib; first compound 2 µM", "value": 0.912},
      {"measurement": "relative viability", "setting": "BAY61-3606 + Pemetrexed; first compound 0.02 µM", "value": 0.813},
      {"measurement": "relative viability", "setting": "BAY61-3606 + Pemetrexed; first compound 0.06325 µM", "value": 0.795},
      {"measurement": "relative viability", "setting": "BAY61-3606 + Pemetrexed; first compound 0.2 µM", "value": 0.789},
      {"measurement": "relative viability", "setting": "BAY61-3606 + Pemetrexed; first compound 0.6325 µM", "value": 0.781},
      {"measurement": "relative viability", "setting": "BAY61-3606 + Pemetrexed; first compound 2 µM", "value": 0.612},
      {"measurement": "relative viability", "setting": "Doxorubicin + Dasatinib; first compound 0.001 µM", "value": 0.43},
      {"measurement": "relative viability", "setting": "Doxorubicin + Dasatinib; first compound 0.003162 µM", "value": 0.47},
      {"measurement": "relative viability", "setting": "Doxorubicin + Dasatinib; first compound 0.01 µM", "value": 0.44},
      {"measurement": "relative viability", "setting": "Doxorubicin + Dasatinib; first compound 0.03162 µM", "value": 0.446},
      {"measurement": "relative viability", "setting": "Doxorubicin + Dasatinib; first compound 0.1 µM", "value": 0.282}
    ]}
  ]
}
